Patent US20070021495A1, “SULFONAMIDES AS SELECTIVE ESTROGEN RECEPTOR” (priority 2005, published 2007)
Entries after “also recorded” stand apart in the source; their conditions may differ. Read-outs that look alike come from different tables or passages of the source.

How the values were obtained:
[1] = molecular target: T1, purified full-length human ERalpha (Homo sapiens, UniProt P03372); assay: Competitive radiometric binding assay, relative binding affinity (RBA), ERalpha; settings: normalized to estradiol set at 100%; [3H]estradiol 10 nM tracer, 18-24 h at 0° C
T1 construct: purified full-length human ERalpha and ERbeta receptors purchased from Pan Vera (Madison, Wis.); purchased Pan Vera (Madison, Wis.)
T1 sequence (P03372 1-595): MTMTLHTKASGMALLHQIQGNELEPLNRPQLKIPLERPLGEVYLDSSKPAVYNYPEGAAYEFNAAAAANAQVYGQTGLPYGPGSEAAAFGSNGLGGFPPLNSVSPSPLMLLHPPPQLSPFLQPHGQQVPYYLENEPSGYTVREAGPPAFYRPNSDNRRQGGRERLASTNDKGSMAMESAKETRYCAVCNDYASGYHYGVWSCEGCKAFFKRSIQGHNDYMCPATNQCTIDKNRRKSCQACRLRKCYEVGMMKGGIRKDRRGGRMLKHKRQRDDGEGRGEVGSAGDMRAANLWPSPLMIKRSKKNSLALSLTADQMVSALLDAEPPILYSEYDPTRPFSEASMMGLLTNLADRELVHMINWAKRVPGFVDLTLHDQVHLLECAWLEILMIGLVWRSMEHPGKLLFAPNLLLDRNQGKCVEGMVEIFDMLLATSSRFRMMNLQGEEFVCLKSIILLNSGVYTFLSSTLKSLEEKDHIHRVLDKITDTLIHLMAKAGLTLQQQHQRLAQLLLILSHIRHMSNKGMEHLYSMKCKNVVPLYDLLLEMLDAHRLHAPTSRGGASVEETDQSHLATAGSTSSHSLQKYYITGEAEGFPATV
Method: Incubations were for 18-24 h at 0° C. Hydroxyapatite (BioRad, Hercules, Calif.) was used to absorb the receptor-ligand complexes and free ligand was washed away. […] The values given are the average±range or SD of two to three independent determinations.

[2] = molecular target: T2, purified full-length human ERbeta (Homo sapiens, UniProt Q92731); assay: Competitive radiometric binding assay, relative binding affinity (RBA), ERbeta; settings: for Relative binding affinity (RBA) ERβ: normalized to estradiol set at 100%, [3H]estradiol 10 nM tracer, 18-24 h at 0° C; for ERβ/ERα (ratio of RBAs): ratio of RBA ERβ to RBA ERα; for ER beta selectivity: binding selectivity ER beta over ER alpha
T2 construct: purified full-length human ERalpha and ERbeta receptors purchased from Pan Vera (Madison, Wis.); purchased Pan Vera (Madison, Wis.)
T2 sequence (Q92731 whole entry): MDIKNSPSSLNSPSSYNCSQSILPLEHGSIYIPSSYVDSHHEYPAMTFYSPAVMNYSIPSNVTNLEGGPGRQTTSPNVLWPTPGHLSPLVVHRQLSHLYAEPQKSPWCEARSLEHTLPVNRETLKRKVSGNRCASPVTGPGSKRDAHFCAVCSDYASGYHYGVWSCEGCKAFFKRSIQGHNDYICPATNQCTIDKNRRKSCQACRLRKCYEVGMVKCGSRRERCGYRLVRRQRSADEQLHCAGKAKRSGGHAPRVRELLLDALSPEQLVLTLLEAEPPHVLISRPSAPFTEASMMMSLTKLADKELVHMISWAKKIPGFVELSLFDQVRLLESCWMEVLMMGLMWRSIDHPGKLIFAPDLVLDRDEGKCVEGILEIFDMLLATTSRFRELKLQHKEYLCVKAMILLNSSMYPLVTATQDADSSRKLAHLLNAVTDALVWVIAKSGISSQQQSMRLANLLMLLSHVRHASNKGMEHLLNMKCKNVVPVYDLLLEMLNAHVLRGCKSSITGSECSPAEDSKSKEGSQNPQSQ
Source text: The relative binding affinities (RBAs) of potential ER ligands can be measured using purified full length human ERalpha and ERbeta receptors in a competitive radiometric binding assay, according to published procedures (Carlson, K. E.; Choi, I.; Gee, A,; Katzenellenbogen, B. S.; Katzenellenbogen, J. A. Altered ligand binding properties and enhanced stability of a constitutively active estrogen receptor: evidence that an open pocket conformation is required for ligand interaction. Biochemistry 1997, 36, 14897-14905; Katzenellenbogen, J. A.; Johnson, H. J., Jr.; Myers, H. N. Photoaffinity labels for estrogen binding proteins of rat uterus. Biochemistry 1973, 12, 4085-4092) as described in the Examples.
Relative binding affinities reported herein were determined by a competitive radiometric binding assay as previously described (Carlson, K. E.; Choi, I.; Gee, A.; Katzenellenbogen, B. S.; Katzenellenbogen, J. A. Altered ligand binding properties and enhanced stability of a constitutively active estrogen receptor: evidence that an open pocket conformation is required for ligand interaction. Biochemistry 1997, 36, 14897-14905; Katzenellenbogen, J. A.; Johnson, H. J., Jr.; Myers, H. N. Photoaffinity labels for estrogen binding proteins of rat uterus. Biochemistry 1973, 12, 4085-4092.) [3H]estradiol (10 nM) was used as tracer ([6,7-3H]estra-1,3,5,(10)triene-3,17-β-diol, 51-53 Ci/mmol, Amersham Biosciences, Piscataway, N.J.), and purified full-length human ERalpha and ERbeta receptors purchased from Pan Vera (Madison, Wis.). Incubations were for 18-24 h at 0° C. Hydroxyapatite (BioRad, Hercules, Calif.) was used to absorb the receptor-ligand complexes and free ligand was washed away. The binding affinities are expressed as relative binding affinity (RBA) values with the RBA of estradiol set to 100%. The values given are the average±range or SD of two to three independent determinations. […]

Candida albicans = settings: cited from earlier work
ovariectomized mice = settings: cited from earlier work
ERα = molecular target: T3, ERα (Homo sapiens, UniProt P03372); assay: Antagonism of estrogen-induced 2x-pS2-ERE-Luc reporter expression in HEC-1 cells transfected with ERα; settings: ligand + E2 at 1 nM, 24 hours, luciferase, pS2 promoter
T3 sequence (P03372 1-595): T1 sequence (P03372 1-595)
Method: (§1) Values are expressed as % of E2 activity at 1 nM and are the mean of duplicate determinations.
(§2) The data presented was measured using a reporter gene under the control of the pS2 promoter. […] Human endometrial cancer (HEC-1) cells were maintained in minimum essential medium (MEM) plus phenol red supplemented with 5% calf serum and 5% fetal calf serum. […] The cells were incubated at 37° C. in a 5% CO2-containing incubator for 5 h. The medium was then replaced with fresh improved MEM supplemented with 5% CDCS plus the desired concentrations of ligand. Cells were harvested 24 h later.

ERβ = ERβ (Homo sapiens, UniProt Q92731); assay: Antagonism of estrogen-induced 2x-pS2-ERE-Luc reporter expression in HEC-1 cells transfected with ERβ; settings: ligand + E2 at 1 nM, 24 hours, luciferase, pS2 promoter
Chain of ERβ (Q92731 whole entry, species assumed): as the sequence (Q92731 whole entry) above
Method: as §1, §2

[3] = tested on: U2-OS cells stably expressing either ERα or ERβ; assay: Endogenous gene expression (cystatin D, GREB1 mRNA, quantitative PCR) in U2-OS cells stably expressing ERα or ERβ; settings: 24 hours, mRNA by quantitative PCR
Method: Expression levels of cystatin D (A and B) or of GREB1 (C and D) mRNA were determined by quantitative PCR methods.
More specifically real-time PCR was carried out on the indicated genes to evaluate mRNA levels of ER alpha or ER beta in U2-OS stably transfected cells. […] One microgram of total RNA from each sample was reverse transcribed in a total volume of 20 μl using 200 U reverse transcriptase, 50 pmol random hexamers, and 1 mM deoxynucleotide triphosphates (New England Biolabs, Beverly, Mass.). The resulting cDNA was then diluted to a total volume of 100 μl. Each real-time PCR consisted of 5 μl of diluted reverse transcription product, 1× SYBR Green PCR Master Mix (Applied Biosystems, Foster City, Calif.), and 50 nM of forward and reverse primers. Reactions were carried out in an ABI Prism 7700 Sequence Detection System (Applied Biosystems) for 40 cycles (95 C for 15 sec, 60 C for 1 min) after an initial 10-min incubation at 95 C. The FC in expression was calculated using the DDCt comparative threshold cycle method with the ribosomal protein 36B4 mRNA as an internal control. Gene expression is normalized to an endogenous reference gene (36B4) and the FC in gene expression is then determined relative to the vehicle-treated control.

In the case of `CCCCN(c1ccc(O)cc1)S(=O)(=O)c1ccc(O)cc1` [Compound 20d, N-Butyl-4-hydroxy-N-(4-hydroxy-phenyl)-benzenesulfonamide], the “Relative binding affinity (RBA) ERα” value [1] is reported as 0.023%, the “Relative binding affinity (RBA) ERβ” value [2] is reported as 1.15% and the “ERβ/ERα (ratio of RBAs)” value [2] is reported as 50.

With `O=S(=O)(c1ccc(O)cc1)N(CCC(F)(F)F)c1ccc(O)c(F)c1` [Compound 28a, N-(3-Fluoro-4-hydroxy-phenyl)-4-hydroxy-N-(3,3,3-trifluoro-propyl)-benzenesulfonamide] the “Relative binding affinity (RBA) ERα” value [1] was 0.009%, the “Relative binding affinity (RBA) ERβ” value [2] was 0.178% and the “ERβ/ERα (ratio of RBAs)” value [2] was 20.

For `CCCC(C)N(c1ccc(O)cc1)S(=O)(=O)c1ccc(O)cc1` (centres unmarked) [Compound 20i, 4-Hydroxy-N-(4-hydroxy-phenyl)-N-(1-methyl-butyl)-benzenesulfonamide], the “Relative binding affinity (RBA) ERα” value [1] was 0.013%, the “Relative binding affinity (RBA) ERβ” value [2] was 1.3% and the “ERβ/ERα (ratio of RBAs)” value [2] was 100.

For `COc1ccc(NS(=O)(=O)c2ccc(OC)cc2)cc1` [compound II, p-methoxybenzenesulfon-p-anisidide], the “Activity against Candida albicans” value (Candida albicans) is listed as “some activity” and the “percentage of animals which responded” value (ovariectomized mice; dose 50 micrograms) is listed as 100%.

For `CC(C)CN(c1ccc(O)cc1)S(=O)(=O)c1ccc(O)cc1` [Compound 20e, N-Isobutyl-4-hydroxy-N-(4-hydroxy-phenyl)-benzenesulfonamide], the “Relative binding affinity (RBA) ERα” value [1] was 0.013%, the “Relative binding affinity (RBA) ERβ” value [2] was 0.14% and the “ERβ/ERα (ratio of RBAs)” value [2] was 11.

In the case of `CCCN(c1ccc(O)c(F)c1)S(=O)(=O)c1ccc(O)cc1` [Compound 24a, N-(3-Fluoro-4-hydroxy-phenyl)-4-hydroxy-N-propyl-benzenesulfonamide], the “Relative binding affinity (RBA) ERα” value [1] is reported as 0.011%, the “Relative binding affinity (RBA) ERβ” value [2] is reported as 0.254% and the “ERβ/ERα (ratio of RBAs)” value [2] is reported as 23.

For `CCCN(c1ccc(O)cc1)S(=O)(=O)c1ccc(O)cc1` [Compound 20c, 4-Hydroxy-N-(4-hydroxy-phenyl)-N-propyl-benzenesulfonamide], the “Antagonism on estrogen-induced gene expression through ERα” value (ERα; listed as FS-2) was “do not act as antagonists; also recorded: lack of antagonism”, the “Relative binding affinity (RBA) ERα” value [1] was 0.026% and the “Antagonism on estrogen-induced gene expression through ERβ” value (ERβ; listed as FS-2) was “do not act as antagonists; also recorded: lack of antagonism”. The “Potency in endogenous gene regulation compared to the dose response of estradiol” value [3] was “preferential potency through ERbeta”, the “Regulation of endogenous genes (cystatin D and GREB1)” value [3] was “preferential regulation through ERbeta” and the ER beta selectivity [2] was 98 fold. The “Relative binding affinity (RBA) ERβ” value [2] was 2.56% and the “ERβ/ERα (ratio of RBAs)” value [2] was 98.

In the case of `CN(c1ccc(O)cc1)S(=O)(=O)c1ccc(O)cc1` [Compound 20a, 4-Hydroxy-N-(4-hydroxy-phenyl)-N-methyl-benzenesulfonamide], the “Relative binding affinity (RBA) ERα” value [1] is reported as 0.009%, the “Relative binding affinity (RBA) ERβ” value [2] is reported as 0.058% and the “ERβ/ERα (ratio of RBAs)” value [2] is reported as 6.4.

With `O=S(=O)(c1ccc(O)cc1)N(CCC(F)(F)F)c1ccc(O)cc1` [Compound 20l, 4-Hydroxy-N-(4-hydroxy-phenyl)-N-(3,3,3-trifluoro-propyl)benzenesulfonamide] the “Antagonism on estrogen-induced gene expression through ERα” value (ERα; listed as FS-5) was “do not act as antagonists; also recorded: lack of antagonism”, the “Relative binding affinity (RBA) ERα” value [1] was 0.006% and the “Antagonism on estrogen-induced gene expression through ERβ” value (ERβ; listed as FS-5) was “do not act as antagonists; also recorded: lack of antagonism”. For the same compound, the “Potency in endogenous gene regulation compared to the dose response of estradiol” value [3] was “preferential potency through ERbeta”, the “Regulation of endogenous genes (cystatin D and GREB1)” value [3] was “preferential regulation through ERbeta” and the ER beta selectivity [2] was 212 fold. For the same compound, the “Relative binding affinity (RBA) ERβ” value [2] was 1.27% and the “ERβ/ERα (ratio of RBAs)” value [2] was 212.

For `COc1ccc(S(=O)(=O)N(c2ccccc2)c2ccccc2)cc1` [compound VIII], the “percentage of animals which responded” value (ovariectomized mice; dose 250 micrograms) is listed as 60%.

For `CC(C)N(c1ccc(O)cc1)S(=O)(=O)c1ccc(O)cc1` [Compound 20g, N-Isopropyl-4-hydroxy-N-(4-hydroxy-phenyl)-benzenesulfonamide], the “Relative binding affinity (RBA) ERα” value [1] was 0.012%, the “Relative binding affinity (RBA) ERβ” value [2] was 0.22% and the “ERβ/ERα (ratio of RBAs)” value [2] was 18.

With `O=S(=O)(c1ccc(O)cc1)N(CCC(F)(F)F)c1ccc(O)c(Cl)c1` [Compound 28b, N-(3-Chloro-4-hydroxy-phenyl)-4-hydroxy-N-(3,3,3-trifluoro-propyl)-benzenesulfonamide] the “Relative binding affinity (RBA) ERα” value [1] was 0.003%, the “Relative binding affinity (RBA) ERβ” value [2] was 0.023% and the “ERβ/ERα (ratio of RBAs)” value [2] was 7.7.

For `CCC(CC)N(c1ccc(O)cc1)S(=O)(=O)c1ccc(O)cc1` [Compound 20j, N-(1-Ethyl-propyl)-4-hydroxy-N-(4-hydroxy-phenyl)-benzenesulfonamide], the “Relative binding affinity (RBA) ERα” value [1] was 0.018%, the “Relative binding affinity (RBA) ERβ” value [2] was 0.11% and the “ERβ/ERα (ratio of RBAs)” value [2] was 6.1.

With `CCCCCN(c1ccc(O)cc1)S(=O)(=O)c1ccc(O)cc1` [Compound 20f, 4-Hydroxy-N-(4-hydroxy-phenyl)-N-pentyl-benzenesulfonamide] the “Relative binding affinity (RBA) ERα” value [1] was 0.047%, the “Relative binding affinity (RBA) ERβ” value [2] was 0.60% and the “ERβ/ERα (ratio of RBAs)” value [2] was 13.

For `CCC(C)N(c1ccc(O)cc1)S(=O)(=O)c1ccc(O)cc1` (racemic) [Compound 20h (Racemic), N-sec-Butyl-4-hydroxy-N-(4-hydroxy-phenyl)-benzenesulfonamide], the “Relative binding affinity (RBA) ERα” value [1] was 0.006%, the ER beta selectivity [2] was 162 fold and the “Relative binding affinity (RBA) ERβ” value [2] was 0.97%. The “ERβ/ERα (ratio of RBAs)” value [2] was 162.

With `CCCN(c1ccc(O)c(Cl)c1)S(=O)(=O)c1ccc(O)cc1` [Compound 24b, N-(3-Chloro-4-hydroxy-phenyl)-4-hydroxy-N-propyl-benzenesulfonamide] the “Relative binding affinity (RBA) ERα” value [1] was 0.005%, the “Relative binding affinity (RBA) ERβ” value [2] was 0.038% and the “ERβ/ERα (ratio of RBAs)” value [2] was 7.6.

In the case of `CCN(c1ccc(O)cc1)S(=O)(=O)c1ccc(O)cc1` [Compound 20b, N-Ethyl-4-hydroxy-N-(4-hydroxy-phenyl)-benzenesulfonamide], the “Relative binding affinity (RBA) ERα” value [1] is reported as 0.007%, the “Relative binding affinity (RBA) ERβ” value [2] is reported as 0.28% and the “ERβ/ERα (ratio of RBAs)” value [2] is reported as 40.

In the case of `O=S(=O)(c1ccc(O)cc1)N(CC(F)(F)F)c1ccc(O)cc1` [Compound 20k, 4-Hydroxy-N-(4-hydroxy-phenyl)-N-(2,2,2-trifluoro-ethyl)-benzenesulfonamide], the “Relative binding affinity (RBA) ERα” value [1] is reported as 0.020%, the “Relative binding affinity (RBA) ERβ” value [2] is reported as 0.17% and the “ERβ/ERα (ratio of RBAs)” value [2] is reported as 8.5.
